From US5244915A, “Amico acid derivatives cyclized at the C-terminal” (Warner-Lambert Company, priority 1991, dated 1993)

Tests used:
CCK A = test: CCK receptor binding (CCK A); settings: assay not described
Method: (§1) The biological activity of compounds of the present invention was evaluated employing an initial screening test which rapidly and accurately measured the binding of the tested compound to known CCK receptor sites. […] (See Hays et al, Neuropeptides 1:53-62, 1980; and Satuer et al, Science 208:1155-1156, 1980.
(§2) The inhibition constant (Ki) of the test compound was then calculated according to the Cheng-Prusoff equation: [formula] where [L] is the concentration of radiolabel and Ka is the equilibrium dissociation constant.

CCK B = target: T1, CCK B (Mus musculus, UniProt P56481); test: CCK receptor binding, displacement of tritiated-pentagastrin from cerebral cortical membranes (CCK B); parameters: species or system mouse (male CFLP); settings: mouse cerebral cortex membranes, 2 nM tritiated-pentagastrin
T1 construct: from tissue; host or cells: cerebral cortex of male CFLP mice (30-40 g), washed membranes
T1 sequence (P56481 1-453): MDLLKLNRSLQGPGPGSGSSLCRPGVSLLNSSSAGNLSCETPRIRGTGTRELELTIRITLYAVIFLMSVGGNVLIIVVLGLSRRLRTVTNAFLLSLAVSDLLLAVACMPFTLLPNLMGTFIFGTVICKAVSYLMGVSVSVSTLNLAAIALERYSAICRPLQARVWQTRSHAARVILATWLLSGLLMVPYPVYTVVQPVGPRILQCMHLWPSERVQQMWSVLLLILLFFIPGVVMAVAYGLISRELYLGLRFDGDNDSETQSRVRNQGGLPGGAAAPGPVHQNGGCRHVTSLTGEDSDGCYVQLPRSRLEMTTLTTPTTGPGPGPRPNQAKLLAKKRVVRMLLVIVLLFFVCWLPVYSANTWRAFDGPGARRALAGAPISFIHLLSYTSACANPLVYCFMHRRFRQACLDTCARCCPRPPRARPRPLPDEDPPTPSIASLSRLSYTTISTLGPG
Method: as §1
In this screening test, the cerebral cortices taken from male CFLP mice weighing between 30-40 g were dissected on ice, weighed, and homogenized in 10 volumes of 50 mM Tris-HCl buffer (pH 7.4 at 0°-4° C.). The resulting suspension was centrifuged, the supernate was discarded, and the pellet was washed by resuspension in Tris-HCl buffer followed by recentrifugation. The final pellet was resuspended in 20 volumes of […] buffer (pH 7.2 at 23° C.) containing 130 mM NaCl, […], […], […], 5 mg/mL bovine albumin, and bacitracin (0.25 mg/ml).
In saturation studies, cerebral cortical membranes were incubated at 23° C. for 120 minutes in a final volume of 500 μliter of Hepes incubation buffer (pH 7.2) together with 0.2-20 nM tritiated-pentagastrin (Amersham International, England).
In the displacement experiments, membranes were incubated with a single concentration (2 nM) of ligand, together with increasing concentrations (10^-11 to […]) of competitive test compound. In each case, the nonspecific binding was defined as that persisting in the presence of the unlabeled octapeptide CCK26-33 (10^-6 M).
Following incubation, radioactivity bound to membranes was separated from that free in solution by rapid filtration through Whatman GF/B filters and washed three times with 4 mL of ice cold Tris-HCl buffer. Filters from samples incubated with tritiated-pentagastrin were placed in polyethylene vials with 4 mL of scintillation cocktail, and the radioactivity was estimated by liquid scintillation spectrometry (efficiency 47-52%).
The specific binding to CCK receptor sites was defined as the total bound tritiated-pentagastrin minus the amount of tritiated-pentagastrin bound in the presence of 10^-6 octapeptide, CCK 26-33.
Saturation curves for specific tritiated-pentagastrin binding to mouse cortical membranes were analyzed by the methods of Scatchard (Ann. New York Acad. Sci. 51:660-672, 1949, and Hill (J. Phvsiol. 40:IV-VIII, 1910, to provide estimates for the maximum number of binding sites (Bmax) and the equilibrium dissociation constant (Ka).
In displacement experiments, inhibition curves were analyzed by either logit-log plots or the iterative curve fitting computer program ALLFIT (DeLean, Munson and Redbard, 1978) to provide estimates of the IC50 and nH (apparent Hill coefficient) values). (IC50 values were defined as the concentration of test compound required to produce 50% inhibition of specific binding.)
as §2

Ki (CCK A)	Ki (CCK B)	Structure (SMILES)
5.22 µM	0.045 µM	CC(Cc1c[nH]c2ccccc12)(NC(=O)OC1C2CC3CC(C2)CC1C3)C(=O)NC1CCCc2ccccc21 (racemic) [Compound 6, Carbamic acid, [1-(1H-indol-3-ylmethyl)-1-methyl-2-oxo-2-[(1,2,3,4-tetrahydro-1-naphthalenyl)amino]ethyl]-, tricyclo[3.3.1.1^3,7]-dec-2-yl ester, (±)-]
–	0.33 µM	CC(Cc1c[nH]c2ccccc12)(NC(=O)OC1C2CC3CC(C2)CC1C3)C(=O)NC1CCc2ccccc2C1 (racemic) [Compound 7, Carbamic acid, [1-1H-indol-3-ylmethyl)-1-methyl-2-oxo-2 [(1,2,3,4-tetrahydro-2-naphthalenyl)amino]ethyl]-, tricyclo[3.3.1.1^3,7]-dec-2-yl ester, (±)-]
7.62 µM	0.094 µM	CC1(C)[C@H]2CC[C@]1(C)[C@H](OC(=O)N[C@](C)(Cc1c[nH]c3ccccc13)C(=O)NC1CCc3ccccc3C1=O)C2 (single isomer, unassigned) [Compound 4, Carbamic acid, [1-(1H-indol-3-ylmethyl)-1 methyl-2-oxo-2-[(1,2,3,4-tetrahydro-1-oxo 2-naphthalenyl)amino]ethyl]-, 1,7,7-trimethyl-bicyclo[2.2.1]hept-2-yl ester]
–	0.059 µM	CC1(C)[C@H]2CC[C@]1(C)[C@H](OC(=O)N[C@](C)(Cc1c[nH]c3ccccc13)C(=O)NC1CCc3ccccc3C1=O)C2 (single isomer, unassigned) [Compound 5, Carbamic acid, [1-(1H-indol-3 ylmethyl)-1-methyl-2-oxo-2-[(1-2,3,4-tetrahydro-1-oxo-2-naphthalenyl)amino]ethyl]-, 1,7,7-trimethylbicyclo[2.2.1.1]hept-2-yl ester]
–	0.28 µM	CC1(C)[C@H]2CC[C@]1(C)[C@H](OC(=O)N[C@](C)(Cc1c[nH]c3ccccc13)C(=O)NC1c3ccccc3CC1O)C2 (stereo partly drawn) [Compound 1, Carbamic acid, [2-[(2,3-dihydro-2-hydroxy-1H-inden-1-yl)amino]-1-(1H-indol-3-ylmethyl)-1-methyl-2-oxoethyl]-, 1,7,7-trimethylbicyclo-[2.2.1]hept 2-yl ester]
5.3 µM	0.111 µM	CC1(C)[C@H]2CC[C@]1(C)[C@H](OC(=O)N[C@](C)(Cc1c[nH]c3ccccc13)C(=O)N[C@H]1Cc3ccccc3[C@@H]1O)C2 [Compound 2, Carbamic acid, [2-[(2,3-dihydro-1-hydroxy-1H-inden-2-yl)amino]-1-1H-indol-3-ylmethyl)-2-methyl-2-oxoethyl]-, 1,7,7-trimethylbicyclo-[2.2.1]hept-2-yl ester, [1S*[1α,2β[S-(trans)],4α]]-]
3.87 µM	0.03 µM	CC1(C)[C@H]2CC[C@]1(C)[C@H](OC(=O)N[C@](C)(Cc1c[nH]c3ccccc13)C(=O)N[C@@H]1Cc3ccccc3[C@H]1O)C2 [Compound 3, Carbamic acid, [2-[(2,3-dihydro 1-hydroxy-1H-inden-2-yl)amino]-1-(1H-indol-3-ylmethyl)-1-methyl-2-oxoethyl]-, 1,7,7-trimethylbicyclo-[2.2.1]hept-2-yl ester, [1S-[1α,2β[S*(1S*,2S*)],4α]]-]
–	0.45 µM	C[C@](Cc1c[nH]c2ccccc12)(NC(=O)OC1C2CC3CC(C2)CC1C3)C(=O)N1CCc2ccccc2C1 (stereo partly drawn) [Compound 8, Carbamic acid, [1-(1H-indol-3-ylmethyl)-1-methyl-2-oxo-2-(1,2,3,4-tetrahydro-2-isoquinolinyl)ethyl]-, tricyclo[3.3.1.1^3.7]-dec-2-yl ester, (R)-]
